# Laboratory results from patent US20240287065A1, “COMPOUND AS CDK KINASE INHIBITOR AND USE THEREOF” (TYK MEDICINES (ZHENGZHOU) , INC., priority 2021, published 2024).
# Tested on: HCC1806 cells
# Assay: Cell proliferation inhibition assay (MTT, 7 days)
# Assay type: cell-based
# Details: Homo sapiens, HCC1806, 168 h, HCC1086 [sic], 7 days incubation
# Experimental: (§1) MCF7, T47D, OVCAR3 and HCC1806 cells were inoculated in 96-well plates at 3000, 3000, 2500, and 2000 cells/well, respectively, and cultured overnight at 37° C., 5% C02 incubator.
# (§2) 1. […] Then 2.5 μl of the stock solution was dissolved in 497.5 μl of DMSO-free medium, and then a 3-fold serial gradient dilution was performed with 0.1% DMSO medium for a total of 9 concentrations, and the concentrations of the compounds after dilution were as follows: • 10000 nM, 3333.33 nM, 1111.11 nM, 370.34 nM, 123.45 nM, 41.15 nM, 13.72 nM, 4.57 nM, and 1.52 nM. • b) After fully mixing, 20 μL of compound solutions were added into cell culture plates containing 80 μL of cells respectively, with 4 replicate wells for each concentration. • c) The cells were transferred to an incubator and incubated for 7 days, and exchanged with fresh culture medium containing the same concentration of compounds when incubated to day 4. 2. MTT assay • a) The cell culture plate was taken out and 10 μL of 5 mg/ml MTT was added to the hood. • b) The cell culture plate was put back into the incubator and continued to incubate for 3 hours. • c) The cell culture plate was taken out to remove the culture medium, and 100 μL of isopropanol (0.4 mMHCl, 0.4% NP40) was added to the plate, and the plate was shaken on a shaker at room temperature for 30 minutes and read at 570 nm. 3. Data analysis
# (§3) The survival rate (% Cell Survival) was calculated using the following equation:
# (§4) % Cell Survival=100%×(OD_Sample−OD_LCave)/(OD_HC−OD_LCave) • OD_HC: 0.1‰ cell readings of DMSO control • OD_Sample: cell readings of compound addition • OD_LC: readings of blank medium • Analyed by Prizm: Dose-response-Inhibition Log(inhibitor) vs response (three parameters for the best fit)
# (§5) IC50 (nM) values were calculated by concentration-response curve fitting.
row,SMILES,IC50 [nM]
1,CCCS(=O)(=O)N1CCC(Nc2ncc3cc(OC(F)F)c(=O)n([C@@H]4CCC[C@@]4(C)O)c3n2)CC1 [Example 30],50 to 5200
2,C[C@@]1(O)CCC[C@H]1n1c(=O)c(OC(F)F)cc2cnc(NC3CCN(S(=O)(=O)C4CCC(F)CC4)CC3)nc21 (some centres unmarked) [Example 55],50 to 5200
3,[2H]C([2H])([2H])Oc1ccc(S(=O)(=O)N2CCC(Nc3ncc4cc(OC(F)F)c(=O)n([C@@H]5CCC[C@@]5(C)O)c4n3)CC2)cc1 [Example 31],≤ 50
4,CN1CCN(c2ccc(Nc3ncc4cc(OC(F)F)c(=O)n([C@@H]5CCC[C@@]5(C)O)c4n3)cc2)CC1 [Example 63],50 to 5200

# Tested on: MCF7 cells
# Assay: Cell proliferation inhibition assay (MTT, 7 days)
# Assay type: cell-based
# Details: Homo sapiens, 168 h, 7 days incubation
# Experimental: as §1, §2, §3, §4, §5
row,SMILES,IC50 [nM]
1,CCCS(=O)(=O)N1CCC(Nc2ncc3cc(OC(F)F)c(=O)n([C@@H]4CCC[C@@]4(C)O)c3n2)CC1 [Example 30],50 to 5200
2,C[C@@]1(O)CCC[C@H]1n1c(=O)c(OC(F)F)cc2cnc(NC3CCN(S(=O)(=O)C4CCC(F)CC4)CC3)nc21 (some centres unmarked) [Example 55],≤ 50
3,[2H]C([2H])([2H])Oc1ccc(S(=O)(=O)N2CCC(Nc3ncc4cc(OC(F)F)c(=O)n([C@@H]5CCC[C@@]5(C)O)c4n3)CC2)cc1 [Example 31],≤ 50
4,CN1CCN(c2ccc(Nc3ncc4cc(OC(F)F)c(=O)n([C@@H]5CCC[C@@]5(C)O)c4n3)cc2)CC1 [Example 63],≤ 50

# Tested on: OVCAR3 cells
# Assay: Cell proliferation inhibition assay (MTT, 7 days)
# Assay type: cell-based
# Details: Homo sapiens, OVCAR-3, 168 h, 7 days incubation
# Experimental: as §1, §2, §3, §4, §5
row,SMILES,IC50 [nM]
1,CCCS(=O)(=O)N1CCC(Nc2ncc3cc(OC(F)F)c(=O)n([C@@H]4CCC[C@@]4(C)O)c3n2)CC1 [Example 30],50 to 5200
2,C[C@@]1(O)CCC[C@H]1n1c(=O)c(OC(F)F)cc2cnc(NC3CCN(S(=O)(=O)C4CCC(F)CC4)CC3)nc21 (some centres unmarked) [Example 55],50 to 5200
3,[2H]C([2H])([2H])Oc1ccc(S(=O)(=O)N2CCC(Nc3ncc4cc(OC(F)F)c(=O)n([C@@H]5CCC[C@@]5(C)O)c4n3)CC2)cc1 [Example 31],≤ 50
4,CN1CCN(c2ccc(Nc3ncc4cc(OC(F)F)c(=O)n([C@@H]5CCC[C@@]5(C)O)c4n3)cc2)CC1 [Example 63],≤ 50

# Tested on: T47D cells
# Assay: Cell proliferation inhibition assay (MTT, 7 days)
# Assay type: cell-based
# Details: Homo sapiens, 168 h, 7 days incubation
# Experimental: as §1, §2, §3, §4, §5
row,SMILES,IC50 [nM]
1,CCCS(=O)(=O)N1CCC(Nc2ncc3cc(OC(F)F)c(=O)n([C@@H]4CCC[C@@]4(C)O)c3n2)CC1 [Example 30],50 to 5200
2,C[C@@]1(O)CCC[C@H]1n1c(=O)c(OC(F)F)cc2cnc(NC3CCN(S(=O)(=O)C4CCC(F)CC4)CC3)nc21 (some centres unmarked) [Example 55],≤ 50
3,[2H]C([2H])([2H])Oc1ccc(S(=O)(=O)N2CCC(Nc3ncc4cc(OC(F)F)c(=O)n([C@@H]5CCC[C@@]5(C)O)c4n3)CC2)cc1 [Example 31],≤ 50
4,CN1CCN(c2ccc(Nc3ncc4cc(OC(F)F)c(=O)n([C@@H]5CCC[C@@]5(C)O)c4n3)cc2)CC1 [Example 63],50 to 5200

# Biological target: CDK6/CycD1 (Homo sapiens, UniProt Q00534)
# Assay: Enzyme activity test
# Assay type: biochemical
# Details: not given
# Experimental: (§6) • 1. The test compounds and pabocinib were configured into a […] solution of DMSO; • 2. 20 nL of stock solution was transferred to a 384-well plate using Echo550. DMSO was used as a blank control.
# (§7) • 1. according to the following table to prepare 1.3X enzyme solution containing enzyme, substrate and cofactor; • 2. 15 μL of 1.3X enzyme solution was added to each well and the mixture was incubated for 30 min at room temperature; • 3. 5 μL of ATP solution was added to initiate the reaction. The final volume of each well was 20 μL; • 4. After incubation for 150 min at room temperature, 75 μL of termination buffer solution was added to terminate the experiment; • 5. The samples were analyzed using EZ reader.
# (§8) The % inhibition was calculated using the following equation
# (§9) The one treated with DMSO is the positive control (PC)
# (§10) The one without enzyme is the negative control (NC)
# (§11) % Inhibition=100-100*((CRPC−CRsample)/(CRPC−CRNC))
# Sequence of CDK6/CycD1 (Q00534 whole entry, species assumed): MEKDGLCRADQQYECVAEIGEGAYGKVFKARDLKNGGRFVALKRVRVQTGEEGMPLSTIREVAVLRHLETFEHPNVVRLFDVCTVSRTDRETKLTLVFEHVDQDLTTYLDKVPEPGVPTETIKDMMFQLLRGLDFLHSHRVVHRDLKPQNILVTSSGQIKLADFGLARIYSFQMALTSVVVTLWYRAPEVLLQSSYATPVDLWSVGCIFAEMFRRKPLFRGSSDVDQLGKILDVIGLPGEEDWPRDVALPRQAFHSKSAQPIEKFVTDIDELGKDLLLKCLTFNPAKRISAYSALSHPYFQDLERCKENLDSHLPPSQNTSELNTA
# Sequence of CDK6/CycD1 (P24385 whole entry partner, species assumed): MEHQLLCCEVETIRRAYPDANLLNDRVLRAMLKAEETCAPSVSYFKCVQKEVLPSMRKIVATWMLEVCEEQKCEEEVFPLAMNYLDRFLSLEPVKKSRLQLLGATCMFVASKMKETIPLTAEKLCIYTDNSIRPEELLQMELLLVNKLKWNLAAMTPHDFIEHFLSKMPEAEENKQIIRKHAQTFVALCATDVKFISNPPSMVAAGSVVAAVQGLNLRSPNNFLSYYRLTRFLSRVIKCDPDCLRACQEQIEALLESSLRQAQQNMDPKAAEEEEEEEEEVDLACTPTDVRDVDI
row,SMILES,IC50 [nM]
1,CN1CCC(c2ccc(Nc3ncc4cc(OC(F)F)c(=O)n([C@@H]5CCC[C@@]5(C)O)c4n3)cc2)CC1 [Example 61],< 10
2,CN([C@H]1CC[C@H](Nc2ncc3cc(OC(F)F)c(=O)n([C@@H]4CCC[C@@]4(C)O)c3n2)CC1)S(C)(=O)=O [Example 69],10 to 100
3,C[C@@]1(O)CCC[C@H]1n1c(=O)c(C2COC2)cc2cnc(NC3CCN(S(C)(=O)=O)CC3)nc21 [Example 1],10 to 100

# Biological target: CDK2/CycE1 (Homo sapiens, UniProt P24941)
# Assay: Enzyme activity test
# Assay type: biochemical
# Details: not given
# Experimental: as §6, §7, §8, §9, §10, §11
row,SMILES,IC50 [nM]
1,CN1CCC(c2ccc(Nc3ncc4cc(OC(F)F)c(=O)n([C@@H]5CCC[C@@]5(C)O)c4n3)cc2)CC1 [Example 61],10 to 100
2,CN([C@H]1CC[C@H](Nc2ncc3cc(OC(F)F)c(=O)n([C@@H]4CCC[C@@]4(C)O)c3n2)CC1)S(C)(=O)=O [Example 69],< 10
3,C[C@@]1(O)CCC[C@H]1n1c(=O)c(C2COC2)cc2cnc(NC3CCN(S(C)(=O)=O)CC3)nc21 [Example 1],< 10
4,C[C@@]1(O)CCC[C@H]1n1c(=O)c(OC(F)F)cc2cnc(N[C@@H]3CCOC[C@H]3O)nc21 [Example 45],10 to 100
5,[2H]C([2H])([2H])Oc1ccc(S(=O)(=O)N2CCC(Nc3ncc4cc(OC(F)F)c(=O)n([C@@H]5CCC[C@@]5(C)O)c4n3)CC2)cc1 [Example 31],< 10

# Biological target: CDK4/CycD3 (Homo sapiens, UniProt P11802)
# Assay: Enzyme activity test
# Assay type: biochemical
# Details: not given
# Experimental: as §6, §7, §8, §9, §10, §11
# Sequence of CDK4/CycD3 (P11802 whole entry, species assumed): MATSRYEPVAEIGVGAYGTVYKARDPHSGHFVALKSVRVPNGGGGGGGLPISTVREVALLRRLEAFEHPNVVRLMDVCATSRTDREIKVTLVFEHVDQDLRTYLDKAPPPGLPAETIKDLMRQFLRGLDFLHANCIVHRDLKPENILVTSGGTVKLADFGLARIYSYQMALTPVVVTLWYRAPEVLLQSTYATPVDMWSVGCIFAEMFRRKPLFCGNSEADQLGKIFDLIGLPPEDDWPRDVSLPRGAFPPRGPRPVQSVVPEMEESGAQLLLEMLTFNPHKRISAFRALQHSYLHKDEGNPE
# Sequence of CDK4/CycD3 (P30281 whole entry partner, species assumed): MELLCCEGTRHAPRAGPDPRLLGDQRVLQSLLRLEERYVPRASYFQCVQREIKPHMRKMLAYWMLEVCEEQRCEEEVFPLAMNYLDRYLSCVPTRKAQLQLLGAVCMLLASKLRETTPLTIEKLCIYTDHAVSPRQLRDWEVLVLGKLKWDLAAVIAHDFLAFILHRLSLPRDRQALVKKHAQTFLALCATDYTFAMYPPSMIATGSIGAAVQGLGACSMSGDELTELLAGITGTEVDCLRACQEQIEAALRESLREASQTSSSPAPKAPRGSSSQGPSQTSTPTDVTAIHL
row,SMILES,IC50 [nM]
1,CN1CCC(c2ccc(Nc3ncc4cc(OC(F)F)c(=O)n([C@@H]5CCC[C@@]5(C)O)c4n3)cc2)CC1 [Example 61],< 10
2,CN([C@H]1CC[C@H](Nc2ncc3cc(OC(F)F)c(=O)n([C@@H]4CCC[C@@]4(C)O)c3n2)CC1)S(C)(=O)=O [Example 69],10 to 100
3,C[C@@]1(O)CCC[C@H]1n1c(=O)c(C2COC2)cc2cnc(NC3CCN(S(C)(=O)=O)CC3)nc21 [Example 1],10 to 100
4,C[C@@]1(O)CCC[C@H]1n1c(=O)c(OC(F)F)cc2cnc(N[C@@H]3CCOC[C@H]3O)nc21 [Example 45],10 to 100
5,[2H]C([2H])([2H])Oc1ccc(S(=O)(=O)N2CCC(Nc3ncc4cc(OC(F)F)c(=O)n([C@@H]5CCC[C@@]5(C)O)c4n3)CC2)cc1 [Example 31],< 10
